We go through one compound from patent US20120328696A1, “ANTI-PARKINSONIAN COMPOUND ACETYLSALICYLIC ACID MALTOL ESTER” (Hutecs Korea Pharmaceutical Co., Ltd., priority 2008, published 2012).

Data set [1] has as its system dopamine (DA), DOPAC, HVA. The data set is described as follows: Striatal DA, DOPAC and HVA after MPTP (HPLC). The class given is in vivo, mice. The conditions noted are these: AME 25 mg/kg p.o., MPTP 25 mg/kg i.p. x7 days. On the procedure: AME (25 mg/kg, p.o) administration was started 4 days (twice daily) before the first injection of MPTP and continued for 7 consecutive days (once a day). MPTP was injected (25 mg/kg, i.p) once a day 1 h after AME treatment for consecutive 7 days.
At 3 days after last MPTP injection, mice were killed by cervical dislocation. The brains were removed and placed on an ice-cooled plate. Striatum was dissected and immediately frozen on dry ice and stored at −70° C. until extraction. Brain regions obtained from each animal were weighed, ultrasonicated in 10% perchloric acid containing 10 ng/mg of the internal standard dihydroxybenzilamine, and centrifuged at 20,000×g for 10 min. The levels of DA and its metabolites 3,4-dihydroxyphenylacetic acid (DOPAC) and homovanillic acid (HVA) in brain tissue extracts were determined by HPLC coupled with electrochemical detection as described (Kim et al., 1999). Briefly, striatal tissues were sonicated in 0.2 M perchloric acid (20% W/V) containing the internal standard 3,4-dihydroxybenzylamine (10 mg wet tissue/ml). The homogenate was centrifuged and a 20 μl aliquot of the supernatant was injected into the HPLC equipped with a 3 μm C18 column. The mobile phase was comprised of 26 ml of acetonitrile, 21 ml of tetrahydrofuran and 960 ml of 0.15 M monochloroacetic acid (pH 3.0) containing 50 mg/l of EDTA and 200 mg/l of sodium octyl sulfate. The amount of DA, DOPAC and HVA were determined by comparison of peak height ratio of tissue sample with standards, and were expressed in nanograms per gram of wet weight of tissue.

For data set [2] the following is noted: Kim et al., 1997a; cited from earlier work.

In the case of `CC(=O)Oc1ccccc1C(=O)Oc1c(C)occc1=O` [AME, 3-(2-methyl-4-pyronyl)-2-acetyloxybenzoate], in data set [1] (p<0.01 vs. MPTP alone), the “effect on MPTP-induced increase in DA turnover rate” value is “significant attenuated”, the “effect on MPTP-induced reduction in striatal HVA” value was “significant attenuated” and the “effect on MPTP-induced reduction in striatal dopamine (DA)” value is on record as “significant attenuated”. In data set [1] (p<0.05 vs. MPTP alone), the “effect on MPTP-induced reduction in striatal DOPAC” value is “significant attenuated”. The gastrointestinal damage entry in data set [2] is “negligible gastrointestinal damage”.
